In patent US20260258064A1 (SIRONAX LTD., priority 2023, published 2026):

Target: T1, SARM1 (50-724) (Homo sapiens, UniProt Q6SZW1)
T1 construct: Purified SARM1 (50-724) with a final concentration of 2 nM was pre-incubated with a test compound
T1 sequence (Q6SZW1 50-724): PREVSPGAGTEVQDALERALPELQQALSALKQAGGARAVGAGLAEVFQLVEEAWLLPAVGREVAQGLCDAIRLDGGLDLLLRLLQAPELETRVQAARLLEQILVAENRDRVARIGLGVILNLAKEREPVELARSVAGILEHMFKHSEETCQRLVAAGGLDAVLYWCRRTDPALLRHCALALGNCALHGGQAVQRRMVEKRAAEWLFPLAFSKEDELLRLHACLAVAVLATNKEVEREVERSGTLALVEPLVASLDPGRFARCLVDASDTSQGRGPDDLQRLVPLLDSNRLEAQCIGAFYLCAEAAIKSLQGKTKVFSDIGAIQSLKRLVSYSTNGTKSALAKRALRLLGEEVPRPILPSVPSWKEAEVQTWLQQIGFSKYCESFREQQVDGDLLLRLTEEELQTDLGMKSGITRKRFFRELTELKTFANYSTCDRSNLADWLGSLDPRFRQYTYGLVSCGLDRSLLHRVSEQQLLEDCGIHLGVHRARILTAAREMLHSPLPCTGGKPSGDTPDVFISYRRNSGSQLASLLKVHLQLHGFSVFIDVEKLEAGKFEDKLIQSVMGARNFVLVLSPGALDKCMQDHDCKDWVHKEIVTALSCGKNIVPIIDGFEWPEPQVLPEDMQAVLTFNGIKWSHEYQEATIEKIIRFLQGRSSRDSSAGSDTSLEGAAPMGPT
Assay: SARM1 (50-724) enzymatic assay (LC-MS/MS)
Type: biochemical
Settings: Purified SARM1 (50-724) 2 nM, NMN as activator, NAD+ as substrate, 1 h at room temperature, read-out: IC50 (SARM1 inhibitory activity)
Outline: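 Human SARM1 (50-724), 2 nM, pre-incubated 15 min at room temperature with compound in Dulbecco's PBS. Reaction started with 200 µM NMN (activator) plus […] NAD^+ substrate, run 1 h at room temperature, quenched with 70% acetonitrile. Turnover quantified by LC-MS/MS; IC50 reported.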

Row | IC50 [nM] | Structure (SMILES)
1 | ≤ 100 | CC(O)C(C)(C)c1ccc2[nH]c(-c3nncn3-c3cccc(Cl)c3Cl)nc2c1 (centres unmarked) [Compound 140, 3-(2-(4-(2,3-dichlorophenyl)-4H-1,2,4-triazol-3-yl)-1H-benzo[d]imidazol-5-yl)-3-methylbutan-2-ol]
2 | > 1000 | Cc1ccc2[nH]c(C3=C(C4CCCC4)COC3=O)nc2c1 [Compound 9, 4-Cyclopentyl-3-(5-methyl-1H-benzo[d]imidazol-2-yl)furan-2(5H)-one]
3 | > 1000 | FC(F)(F)c1ccc2[nH]c(-c3nncn3-c3cccc4nccn34)nc2c1 [Example 62]
4 | 100 to 500 | Cc1nccc(-n2cnnc2-c2nc3cc(C(F)(F)F)ccc3[nH]2)c1Cl [Example 71]
5 | 100 to 500 | Fc1cccc(-n2nccc2-c2nc3cc(C(F)(F)F)ccc3[nH]2)c1Cl [Compound 443, 2-(1-(2-chloro-3-fluorophenyl)-1H-pyrazol-5-yl)-5-(trifluoromethyl)-1H-benzo[d]imidazole]
6 | ≤ 100 | OCCOc1cc(-n2cnnc2-c2cc3cc(C(F)(F)F)cc(F)c3[nH]2)c(OC(F)(F)F)cn1 [Compound 411, 2-((4-(3-(7-fluoro-5-(trifluoromethyl)-1H-indol-2-yl)-4H-1,2,4-triazol-4-yl)-5-(trifluoromethoxy)pyridin-2-yl)oxy)ethanol]
7 | ≤ 100 | N#CC1CC1c1ccc2[nH]c(-c3nncn3-c3cnccc3C(F)(F)F)nc2c1F (centres unmarked) [Compound 320, 2-(4-fluoro-2-(4-(4-(trifluoromethyl)pyridin-3-yl)-4H-1,2,4-triazol-3-yl)-1H-benzo[d]imidazol-5-yl)cyclopropane-1-carbonitrile]
8 | 100 to 500 | Cn1cc(-c2ccc3[nH]c(-c4nncn4-c4cccc(Cl)c4Cl)nc3c2)cn1 [Example 79, 2-(4-(2,3-dichlorophenyl)-4H-1,2,4-triazol-3-yl)-5-(1-methyl-1H-pyrazol-4-yl)-1H-benzo[d]imidazole]
9 | ≤ 100 | OCCOc1ccc(OC(F)(F)F)c(-n2cnnc2-c2nc3cc(C(F)(F)F)ccc3[nH]2)n1 [Compound 250]
10 | 100 to 500 | O=c1[nH]nc(-c2nc3cc(C(F)(F)F)ccc3[nH]2)n1-c1cccc(Cl)c1Cl [Compound 36, 4-(2,3-dichlorophenyl)-5-(5-(trifluoromethyl)-1H-benzo[d]imidazol-2-yl)-2,4-dihydro-3H-1,2,4-triazol-3-one]
11 | 100 to 500 | N#Cc1c(Cl)ccc2[nH]c(-c3nncn3-c3cccc(Cl)c3Cl)nc12 [Example 50, 5-chloro-2-(4-(2,3-dichlorophenyl)-4H-1,2,4-triazol-3-yl)-1H-benzo[d]imidazole-4-carbonitrile]
12 | ≤ 100 | FC1(F)CN(Cc2nnc(-c3nc4cc(C(F)(F)F)ccc4[nH]3)n2-c2cccc(Cl)c2Cl)C1 [Compound 157, 2-(4-(2,3-dichlorophenyl)-5-((3,3-difluoroazetidin-1-yl)methyl)-4H-1,2,4-triazol-3-yl)-5-(trifluoromethyl)-1H-benzo[d]imidazole]
13 | 100 to 500 | FC(F)(F)c1ccc2[nH]c(-c3nocc3-c3cccc(Cl)c3Cl)nc2c1 [Compound 322, 4-(2,3-dichlorophenyl)-3-(5-(trifluoromethyl)-1H-benzo[d]imidazol-2-yl)isoxazole]
14 | > 1000 | N#Cc1c(Cl)cccc1-n1cnnc1-c1nc2cc(C(F)(F)F)ccc2[nH]1 [Example 91]
15 | 100 to 500 | FC(F)(F)c1ccc2[nH]c(-c3nncn3-c3cnccc3C(F)(F)F)c(C3CCNC3)c2c1 (centres unmarked) [Compound 375, 3-(pyrrolidin-3-yl)-5-(trifluoromethyl)-2-(4-(4-(trifluoromethyl)pyridin-3-yl)-4H-1,2,4-triazol-3-yl)-1H-indole]
16 | ≤ 100 | FC(F)(F)Oc1ccc2[nH]c(-c3nncn3-c3cccc(Cl)c3Cl)nc2c1 [Example 132, 2-(4-(2,3-dichlorophenyl)-4H-1,2,4-triazol-3-yl)-5-(trifluoromethoxy)-1H-benzo[d]imidazole]
17 | 100 to 500 | Clc1cccc(-n2cnnc2-c2nc3cc(-c4cncnc4)ccc3[nH]2)c1Cl [Example 73, 2-(4-(2,3-dichlorophenyl)-4H-1,2,4-triazol-3-yl)-5-(pyrimidin-5-yl)-1H-benzo[d]imidazole]
18 | ≤ 100 | FC(F)(F)c1ccc2[nH]c(-c3nncn3-c3cnccc3C(F)(F)F)cc2n1 [Compound 292, 5-(trifluoromethyl)-2-(4-(4-(trifluoromethyl)pyridin-3-yl)-4H-1,2,4-triazol-3-yl)-1H-pyrrolo[3,2-b]pyridine]

Row | IC50 [nM] | Structure (SMILES)
19 | 500 to 1000 | FC(F)(F)c1ccc2[nH]c(-c3scnc3-c3cccc(Cl)c3Cl)nc2c1 [Example 42]
20 | > 1000 | N#Cc1c(-n2c(-c3cccc(Cl)c3Cl)n[nH]c2=O)[nH]c2ccc(C(F)(F)F)cc12 [Compound 41, 2-(3-(2,3-dichlorophenyl)-5-oxo-1,5-dihydro-4H-1,2,4-triazol-4-yl)-5-(trifluoromethyl)-1H-indole-3-carbonitrile]
21 | 100 to 500 | FC(F)(F)c1ccc2[nH]c(-c3nnc(S)n3-c3cccc(Cl)c3Cl)nc2c1 [Example 108, 4-(2,3-dichlorophenyl)-5-(5-(trifluoromethyl)-1H-benzo[d]imidazol-2-yl)-4H-1,2,4-triazole-3-thiol]
22 | 500 to 1000 | CCOC(=O)/C=C/c1cccc2[nH]c(-c3nncn3-c3cnccc3C(F)(F)F)nc12 [Compound 459, ethyl (E)-3-(2-(4-(4-(trifluoromethyl)pyridin-3-yl)-4H-1,2,4-triazol-3-yl)-1H-benzo[d]imidazol-4-yl)acrylate]
23 | ≤ 100 | Cc1ccnc(-n2cnnc2-c2nc3cc(C(F)(F)F)ccc3[nH]2)c1Cl [Example 66]
24 | 500 to 1000 | FC(F)(F)c1ccc2[nH]c(-c3nccnc3-c3cccc(Cl)c3Cl)nc2c1 [Compound 304, 2-(3-(2,3-dichlorophenyl)pyrazin-2-yl)-5-(trifluoromethyl)-1H-benzo[d]imidazole]
25 | 100 to 500 | FC(F)(F)c1ccc2[nH]c(-c3nncn3-c3cnncc3C3CC3)nc2c1 [Compound 220, 2-(4-(5-cyclopropylpyridazin-4-yl)-4H-1,2,4-triazol-3-yl)-5-(trifluoromethyl)-1H-benzo[d]imidazole]
26 | 100 to 500 | FC(F)(F)c1ccc2[nH]c(-c3nnccc3-c3ccncc3C(F)(F)F)nc2c1 [Compound 302, 5-(Trifluoromethyl)-2-(4-(3-(trifluoromethyl)pyridin-4-yl)pyridazin-3-yl)-1H-benzo[d]imidazole]
27 | ≤ 100 | [2H]C([2H])([2H])N(c1cc(F)c2[nH]c(-c3nncn3-c3cnccc3C(F)(F)F)nc2c1)C([2H])([2H])[2H] [Compound 403, 7-fluoro-N,N-bis(methyl-d3)-2-(4-(4-(trifluoromethyl)pyridin-3-yl)-4H-1,2,4-triazol-3-yl)-1H-benzo[d]imidazol-5-amine]
28 | ≤ 100 | FC(F)(F)Oc1cnc(CC2COC2)cc1-n1cnnc1-c1nc2cc(C(F)(F)F)ccc2[nH]1 [Compound 262, 2-(4-(2-(oxetan-3-ylmethyl)-5-(trifluoromethoxy)pyridin-4-yl)-4H-1,2,4-triazol-3-yl)-5-(trifluoromethyl)-1H-benzo[d]imidazole]
29 | ≤ 100 | C=Cc1ccc2[nH]c(-c3nncn3-c3cnccc3C(F)(F)F)nc2c1 [Compound 276, 2-(4-(4-(trifluoromethyl)pyridin-3-yl)-4H-1,2,4-triazol-3-yl)-5-vinyl-1H-benzo[d]imidazole]
30 | ≤ 100 | Fc1cc(C(F)(F)F)cc2nc(-c3nnc(CC(F)F)n3-c3cnccc3C(F)(F)F)[nH]c12 [Compound 317, 2-(5-(2,2-difluoroethyl)-4-(4-(trifluoromethyl)pyridin-3-yl)-4H-1,2,4-triazol-3-yl)-7-fluoro-5-(trifluoromethyl)-1H-benzo[d]imidazole]
31 | ≤ 100 | Cc1c(Cl)ccc2[nH]c(-c3nncn3-c3ccc(F)c(F)c3Cl)nc12 [Compound 164, 5-chloro-2-(4-(2-chloro-3,4-difluorophenyl)-4H-1,2,4-triazol-3-yl)-4-methyl-1H-benzo[d]imidazole]
32 | ≤ 100 | NC(=O)c1cc(Cl)c(Cl)c(-n2cnnc2-c2nc3cc(C(F)(F)F)ccc3[nH]2)c1 [Compound 174, 3,4-dichloro-5-(3-(5-(trifluoromethyl)-1H-benzo[d]imidazol-2-yl)-4H-1,2,4-triazol-4-yl)benzamide]
33 | 100 to 500 | Cc1ccc2[nH]c(-c3ccc(C#N)n3C3CCCC3)nc2c1 [Compound 19, 1-cyclopentyl-5-(5-methyl-1H-1,3-benzodiazol-2-yl)pyrrole-2-carbonitrile]
34 | ≤ 100 | CCc1nnc(-c2nc3cc(C(F)(F)F)ccc3[nH]2)n1-c1cccc(Cl)c1Cl [Compound 145, 2-(4-(2,3-dichlorophenyl)-5-ethyl-4H-1,2,4-triazol-3-yl)-5-(trifluoromethyl)-1H-benzo[d]imidazole]
35 | 500 to 1000 | FC(F)(F)c1ccc2[nH]c(-c3nnccc3N3CCOCC3)nc2c1 [Compound 457, 4-(3-(5-(trifluoromethyl)-1H-benzo[d]imidazol-2-yl)pyridazin-4-yl)morpholine]
